This note sets out measurements from publication PMC4382590 (Biochemistry, 2015).

The target of assay [1] is T1, saFabI (Staphylococcus aureus, UniProt Q6GI75).
T1 sequence (Q6GI75 1-256): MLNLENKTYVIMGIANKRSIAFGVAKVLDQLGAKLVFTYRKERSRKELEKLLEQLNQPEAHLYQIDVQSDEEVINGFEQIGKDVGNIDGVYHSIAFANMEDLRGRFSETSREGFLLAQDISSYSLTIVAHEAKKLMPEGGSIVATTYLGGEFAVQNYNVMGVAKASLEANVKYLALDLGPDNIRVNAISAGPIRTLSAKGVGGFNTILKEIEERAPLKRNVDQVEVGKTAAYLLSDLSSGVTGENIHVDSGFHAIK
The assay is described as follows: X-ray crystal structure. It is filed as binding. Conditions: ternary complexes with PT12, PT400, PT404, PT449 or MUT37307.

Assay [2] addresses T1, saFabI. Nature of the assay: single-concentration progress curve analysis. It is filed as biochemical.
For assay [3], the target named is T1, saFabI. Nature of the assay: ThermoFluor thermal shift. It is filed as binding. Conditions: Tm of free enzyme 62.6.
Another assay addresses T2, ecFabI (Escherichia coli, UniProt P0AEK4).
T2 sequence (P0AEK4 1-262): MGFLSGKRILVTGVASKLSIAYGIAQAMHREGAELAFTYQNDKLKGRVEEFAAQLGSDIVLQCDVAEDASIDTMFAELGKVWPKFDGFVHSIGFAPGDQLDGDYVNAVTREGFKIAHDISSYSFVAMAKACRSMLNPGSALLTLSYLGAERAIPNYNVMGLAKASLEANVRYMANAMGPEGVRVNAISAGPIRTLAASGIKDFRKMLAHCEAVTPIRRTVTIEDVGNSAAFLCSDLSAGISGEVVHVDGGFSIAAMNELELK
Nature of the assay: X-ray crystal structure. It is filed as binding.

On to `NC(=O)c1ccc[n+]([C@@H]2O[C@H](COP(=O)(O)OP(=O)(O)OC[C@H]3O[C@@H](n4cnc5c(N)ncnc54)[C@H](OP(=O)(O)O)[C@@H]3O)[C@@H](O)[C@H]2O)c1` [NADP^+], for which the X-ray crystal structure result on saFabI [1] is “saFabI in complex with NADP^+ and PT12, PT400, PT404, PT449, or MUT37307”.
For `CCCCCCc1ccc(Oc2ccc([N+](=O)[O-])cc2)c(O)c1` [PT12], the affinity at saFabI [2] corresponds to a Ki of 0.05 nM. This lies in the picomolar range.
As to `Cc1c(N)cccc1Cn1ccc(OCCc2cccs2)cc1=O` [CG400549], on saFabI [3] (ternary complex with NADPH), the “Wild-type saFabI” value came out at 71.2 °C.
Turning to `CCc1cc(O)c(Oc2ccc([N+](=O)[O-])cc2Cl)cc1F` [PT404], at saFabI [2], affinity was put at a Ki of 0.75 nM. In other words, the sub-nanomolar range.
On to `NC(=O)c1ccc[n+]([C@@H]2O[C@H](COP(=O)(O)OP(=O)(O)OC[C@H]3O[C@@H](n4cnc5c(N)ncnc54)[C@H](O)[C@@H]3O)[C@@H](O)[C@H]2O)c1` [NAD^+], for which the X-ray crystal structure entry at ecFabI (ternary complex with PT449) was “ecFabI in complex with NAD^+ and PT449 have been deposited in the PDB”.
For the molecule `N#Cc1cc(Br)ccc1Oc1ccc(Cl)cc1O` [PT449], the X-ray crystal structure entry at ecFabI (ternary complex with NAD+) is “ecFabI in complex with NAD^+ and PT449 have been deposited in the PDB”.
Consider `CCCCCCc1ccc(Oc2ccccc2C#N)c(O)c1` [PT119], for which, on saFabI [3] (ternary complex with NADP+), the “Wild-type saFabI” value amounted to 70.4 °C.
